In ChEMBL document CHEMBL5042477, “Potent Cyclic Peptide Inhibitors of FXIIa Discovered by mRNA Display with Genetic Code Reprogramming” (J Med Chem, 2021):
Where a SMILES comes first, the peptide text is derived from it. Bridges are numbered along the chain shown (N, C = ends). [ ]: non-standard residue; d: D form. Phe(3-CF3) = N[C@@H](Cc1cccc(C(F)(F)F)c1)C(=O)O; Phe(4-CF3) = N[C@@H](Cc1ccc(C(F)(F)F)cc1)C(=O)O; Phe(3-OMe) = COc1cccc(C[C@H](N)C(=O)O)c1; Phe(3-F) = N[C@@H](Cc1cccc(F)c1)C(=O)O; Phe(4-F) = N[C@@H](Cc1ccc(F)cc1)C(=O)O; 2Nal = N[C@@H](Cc1ccc2ccccc2c1)C(=O)O; hTyr = N[C@@H](CCc1ccc(O)cc1)C(=O)O; hArg = N=C(N)NCCCC[C@H](N)C(=O)O; hPhe = N[C@@H](CCc1ccccc1)C(=O)O; Cha = N[C@@H](CC1CCCCC1)C(=O)O; Orn = NCCC[C@H](N)C(=O)O

Target: T1, Coagulation factor XII (Homo sapiens, UniProt P00748)
T1 sequence (P00748 whole entry): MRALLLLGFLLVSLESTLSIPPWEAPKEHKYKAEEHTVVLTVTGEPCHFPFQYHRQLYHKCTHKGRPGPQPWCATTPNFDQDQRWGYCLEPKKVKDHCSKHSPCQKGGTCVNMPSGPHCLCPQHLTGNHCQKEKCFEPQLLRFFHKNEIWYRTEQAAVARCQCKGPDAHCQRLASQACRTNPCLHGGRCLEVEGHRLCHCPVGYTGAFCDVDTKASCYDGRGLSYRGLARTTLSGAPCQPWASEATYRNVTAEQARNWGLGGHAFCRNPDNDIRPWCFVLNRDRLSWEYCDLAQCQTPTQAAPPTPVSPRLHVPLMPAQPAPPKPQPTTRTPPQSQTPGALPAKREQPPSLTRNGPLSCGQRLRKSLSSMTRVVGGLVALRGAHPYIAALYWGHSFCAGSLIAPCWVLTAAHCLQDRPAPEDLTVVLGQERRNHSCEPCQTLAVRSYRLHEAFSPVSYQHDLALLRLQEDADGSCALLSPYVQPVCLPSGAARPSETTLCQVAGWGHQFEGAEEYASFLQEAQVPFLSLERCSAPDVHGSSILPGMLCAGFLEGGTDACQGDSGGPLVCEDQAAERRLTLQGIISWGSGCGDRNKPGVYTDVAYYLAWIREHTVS
Experiment: Inhibition of human factor 12a using H-D-Pro-Phe-Arg-p-nitroanilide as chromogenic substrate assessed as liberation of p-nitroaniline measured every 5 mins for 60 min by multimode plate reader analysis

CC(C)C[C@@H]1NC(=O)[C@H]([C@@H](C)O)NC(=O)[C@H](Cc2ccccc2)NC(=O)[C@@H](CCCNC(=N)N)NC(=O)[C@@H](CC(C)C)NC(=O)[C@@H](Cc2ccc(O)cc2)NC(=O)CSC[C@@H](C(N)=O)NC1=O was tested, and the IC50 was 3.8 µM.

CC(C)C[C@@H]1NC(=O)[C@H](Cc2ccc(O)cc2)NC(=O)CSC[C@@H](C(N)=O)NC(=O)CNC(=O)[C@H](C)NC(=O)[C@H](CCCNC(=N)N)NC(=O)[C@H](CC(=O)O)NC(=O)[C@H](CCCCN)NC(=O)[C@@H]2CCCN2C(=O)[C@H](CCCNC(=N)N)NC(=O)[C@H](Cc2ccccc2)NC(=O)[C@H](CCCNC(=N)N)NC1=O ({CH2CO}-YLRFRPKDRAGC-NH2; thioether N-12) was tested, and the IC50 was 27 µM.

CC(C)C[C@@H]1NC(=O)[C@H](Cc2ccc(F)cc2)NC(=O)CSC[C@@H](C(N)=O)NC(=O)CNC(=O)CNC(=O)[C@H](CCCNC(=N)N)NC(=O)[C@H](CC(=O)O)NC(=O)[C@H](CCCCN)NC(=O)[C@@H]2CCCN2C(=O)[C@H](CCCNC(=N)N)NC(=O)[C@H](Cc2ccccc2)NC(=O)[C@H](CCCNC(=N)N)NC1=O ({CH2CO}-[Phe(4-F)]LRFRPKDRGGC-NH2; thioether N-12) was tested, and the IC50 was 0.47 µM.

With CC(C)C[C@@H]1NC(=O)[C@H](Cc2ccc(O)cc2)NC(=O)CSC[C@@H](C(N)=O)NC(=O)CNC(=O)CNC(=O)[C@H](CCCNC(=N)N)NC(=O)[C@H](CC(=O)O)NC(=O)[C@H](CCCCN)NC(=O)[C@@H]2CCCN2C(=O)[C@H](CCCN)NC(=O)[C@H](Cc2ccccc2)NC(=O)[C@H](CCCNC(=N)N)NC1=O ({CH2CO}-YLRF[Orn]PKDRGGC-NH2; thioether N-12) the IC50 was 2.1 µM.

CC(C)C[C@@H]1NC(=O)[C@H](CCc2ccccc2)NC(=O)CSC[C@@H](C(N)=O)NC(=O)CNC(=O)CNC(=O)[C@H](CCCNC(=N)N)NC(=O)[C@H](CC(=O)O)NC(=O)[C@H](CCCCN)NC(=O)[C@@H]2CCCN2C(=O)[C@H](CCCNC(=N)N)NC(=O)[C@H](Cc2ccccc2)NC(=O)[C@H](CCCNC(=N)N)NC1=O ({CH2CO}-[hPhe]LRFRPKDRGGC-NH2; thioether N-12) gave an IC50 of 410 µM.

Compound CC(C)C[C@@H]1NC(=O)[C@H](Cc2ccc(O)cc2)NC(=O)CSC[C@@H](C(N)=O)NC(=O)CNC(=O)CNC(=O)[C@H](CCCNC(=N)N)NC(=O)[C@H](CC(=O)O)NC(=O)[C@H](CCCCN)NC(=O)[C@@H]2CCCN2C(=O)[C@H](CCCNC(=N)N)NC(=O)[C@H](Cc2ccccc2)NC(=O)[C@H](CCCCNC(=N)N)NC1=O ({CH2CO}-YL[hArg]FRPKDRGGC-NH2; thioether N-12) has an IC50 of 0.073 µM.

CC(C)C[C@@H]1NC(=O)[C@H](CC2CCCCC2)NC(=O)CSC[C@@H](C(N)=O)NC(=O)CNC(=O)CNC(=O)[C@H](CCCNC(=N)N)NC(=O)[C@H](CC(=O)O)NC(=O)[C@H](CCCCN)NC(=O)[C@@H]2CCCN2C(=O)[C@H](CCCNC(=N)N)NC(=O)[C@H](Cc2ccccc2)NC(=O)[C@H](CCCNC(=N)N)NC1=O ({CH2CO}-[Cha]LRFRPKDRGGC-NH2; thioether N-12) was tested, and the IC50 was 140 µM.

CC(C)C[C@@H]1NC(=O)[C@H](Cc2ccc(O)cc2)NC(=O)CSC[C@@H](C(N)=O)NC(=O)CNC(=O)CNC(=O)[C@H](CCCNC(=N)N)NC(=O)[C@H](CC(=O)O)NC(=O)[C@H](CCCCN)NC(=O)[C@@H]2CCCN2C(=O)[C@H](CCCNC(=N)N)NC(=O)[C@H](Cc2ccc3ccccc3c2)NC(=O)[C@H](CCCNC(=N)N)NC1=O ({CH2CO}-YLR[2Nal]RPKDRGGC-NH2; thioether N-12) was tested, and the IC50 was 0.05 µM.

Compound CC(C)C[C@@H]1NC(=O)[C@H](Cc2ccc(O)cc2)NC(=O)CSC[C@@H](C(N)=O)NC(=O)CNC(=O)CNC(=O)[C@H](CCCNC(=N)N)NC(=O)[C@H](CC(=O)O)NC(=O)[C@H](CCCCN)NC(=O)[C@@H]2CCCN2C(=O)[C@H](CCCNC(=N)N)NC(=O)[C@H](C)NC(=O)[C@H](CCCNC(=N)N)NC1=O ({CH2CO}-YLRARPKDRGGC-NH2; thioether N-12) has an IC50 of 5.1 µM.

CC(C)C[C@@H]1NC(=O)[C@H](Cc2ccc(O)cc2)NC(=O)CSC[C@@H](C(N)=O)NC(=O)CNC(=O)CNC(=O)[C@H](CCCNC(=N)N)NC(=O)[C@H](CC(=O)O)NC(=O)[C@H](CCCCN)NC(=O)[C@@H]2CCCN2C(=O)[C@H](CCCNC(=N)N)NC(=O)[C@H](Cc2cccc(F)c2)NC(=O)[C@H](CCCNC(=N)N)NC1=O ({CH2CO}-YLR[Phe(3-F)]RPKDRGGC-NH2; thioether N-12) showed an IC50 of 0.066 µM.

CC(C)C[C@@H]1NC(=O)[C@H](C)NC(=O)CSC[C@@H](C(N)=O)NC(=O)CNC(=O)CNC(=O)[C@H](CCC(N)=O)NC(=O)[C@H](CC(N)=O)NC(=O)[C@H]([C@@H](C)O)NC(=O)[C@@H]2CCCN2C(=O)[C@H](CCCCN)NC(=O)[C@H](CC(C)C)NC(=O)[C@H](CCCNC(=N)N)NC1=O ({CH2CO}-ALRLKPTNQGGC-NH2; thioether N-12) was tested, and the IC50 was 290 µM.

In the case of CC(C)C[C@@H]1NC(=O)[C@H](Cc2ccccc2)NC(=O)CSC[C@@H](C(N)=O)NC(=O)CNC(=O)CNC(=O)[C@H](CCCNC(=N)N)NC(=O)[C@H](CC(=O)O)NC(=O)[C@H](CCCCN)NC(=O)[C@@H]2CCCN2C(=O)[C@H](CCCNC(=N)N)NC(=O)[C@H](Cc2ccccc2)NC(=O)[C@H](CCCNC(=N)N)NC1=O ({CH2CO}-FLRFRPKDRGGC-NH2; thioether N-12), the IC50 is reported as 0.48 µM.

CC(C)C[C@@H]1NC(=O)[C@H](Cc2cccc(C(F)(F)F)c2)NC(=O)CSC[C@@H](C(N)=O)NC(=O)CNC(=O)CNC(=O)[C@H](CCCNC(=N)N)NC(=O)[C@H](CC(=O)O)NC(=O)[C@H](CCCCN)NC(=O)[C@@H]2CCCN2C(=O)[C@H](CCCNC(=N)N)NC(=O)[C@H](Cc2ccccc2)NC(=O)[C@H](CCCNC(=N)N)NC1=O ({CH2CO}-[Phe(3-CF3)]LRFRPKDRGGC-NH2; thioether N-12) gave an IC50 of 84 µM.

Work on CC(C)C[C@@H]1NC(=O)[C@H](Cc2ccc(O)cc2)NC(=O)CSC[C@@H](C(N)=O)NC(=O)CNC(=O)CNC(=O)[C@H](CCCNC(=N)N)NC(=O)[C@H](CC(=O)O)NC(=O)[C@H](CCCCN)NC(=O)[C@@H]2CCCN2C(=O)[C@H](CCCNC(=N)N)NC(=O)[C@H](Cc2ccc(C(F)(F)F)cc2)NC(=O)[C@H](CCCNC(=N)N)NC1=O ({CH2CO}-YLR[Phe(4-CF3)]RPKDRGGC-NH2; thioether N-12) yielded an IC50 of 0.11 µM.

With CC(C)C[C@@H]1NC(=O)[C@H](Cc2ccc(O)cc2)NC(=O)CSC[C@@H](C(N)=O)NC(=O)CNC(=O)CNC(=O)[C@H](CCCNC(=N)N)NC(=O)[C@H](CC(=O)O)NC(=O)[C@H](CCCCN)NC(=O)[C@@H]2CCCN2C(=O)[C@H](CCCNC(=N)N)NC(=O)[C@H](CCc2ccc(O)cc2)NC(=O)[C@H](CCCNC(=N)N)NC1=O ({CH2CO}-YLR[hTyr]RPKDRGGC-NH2; thioether N-12) the IC50 was 0.56 µM.

CC(C)C[C@@H]1NC(=O)[C@H](Cc2ccc(O)cc2)NC(=O)CSC[C@@H](C(N)=O)NC(=O)CNC(=O)CNC(=O)[C@H](CCCNC(=N)N)NC(=O)[C@H](CC(=O)O)NC(=O)[C@H](CCCCN)NC(=O)[C@@H]2CCCN2C(=O)[C@H](CCCNC(=N)N)NC(=O)[C@H](Cc2ccccc2)NC(=O)[C@H](CCCCN)NC1=O ({CH2CO}-YLKFRPKDRGGC-NH2; thioether N-12) was tested, and the IC50 was 0.3 µM.

For CC(C)C[C@@H]1NC(=O)[C@H](CCc2ccc(O)cc2)NC(=O)CSC[C@@H](C(N)=O)NC(=O)CNC(=O)CNC(=O)[C@H](CCCNC(=N)N)NC(=O)[C@H](CC(=O)O)NC(=O)[C@H](CCCCN)NC(=O)[C@@H]2CCCN2C(=O)[C@H](CCCNC(=N)N)NC(=O)[C@H](Cc2ccccc2)NC(=O)[C@H](CCCNC(=N)N)NC1=O ({CH2CO}-[hTyr]LRFRPKDRGGC-NH2; thioether N-12), the IC50 was 370 µM.

In the case of CC(C)C[C@@H]1NC(=O)[C@H](Cc2ccc(O)cc2)NC(=O)CSC[C@@H](C(N)=O)NC(=O)CNC(=O)CNC(=O)[C@H](CCC(N)=O)NC(=O)[C@H](CC(N)=O)NC(=O)[C@H](C)NC(=O)[C@@H]2CCCN2C(=O)[C@H](CCCCN)NC(=O)[C@H](CC(C)C)NC(=O)[C@H](CCCNC(=N)N)NC1=O ({CH2CO}-YLRLKPANQGGC-NH2; thioether N-12), the IC50 is reported as 0.45 µM.

COc1cccc(C[C@@H]2NC(=O)[C@H](CCCNC(=N)N)NC(=O)[C@H](CC(C)C)NC(=O)[C@H](Cc3ccc(O)cc3)NC(=O)CSC[C@@H](C(N)=O)NC(=O)CNC(=O)CNC(=O)[C@H](CCCNC(=N)N)NC(=O)[C@H](CC(=O)O)NC(=O)[C@H](CCCCN)NC(=O)[C@@H]3CCCN3C(=O)[C@H](CCCNC(=N)N)NC2=O)c1 ({CH2CO}-YLR[Phe(3-OMe)]RPKDRGGC-NH2; thioether N-12) gave an IC50 of 0.12 µM.

CC(C)C[C@@H]1NC(=O)[C@H](Cc2ccc(O)cc2)NC(=O)CSC[C@@H](C(N)=O)NC(=O)CNC(=O)CNC(=O)[C@H](CCCNC(=N)N)NC(=O)[C@H](CC(=O)O)NC(=O)[C@H](CCCCN)NC(=O)[C@@H]2CCCN2C(=O)[C@H](CCCNC(=N)N)NC(=O)[C@H](Cc2ccc(F)cc2)NC(=O)[C@H](CCCNC(=N)N)NC1=O ({CH2CO}-YLR[Phe(4-F)]RPKDRGGC-NH2; thioether N-12) was tested, and the IC50 was 0.046 µM.

CC(C)C[C@@H]1NC(=O)[C@H](Cc2ccc(O)cc2)NC(=O)CSC[C@@H](C(N)=O)NC(=O)CNC(=O)CNC(=O)[C@H](C)NC(=O)[C@H](CC(=O)O)NC(=O)[C@H](CCCCN)NC(=O)[C@@H]2CCCN2C(=O)[C@H](CCCNC(=N)N)NC(=O)[C@H](Cc2ccccc2)NC(=O)[C@H](CCCNC(=N)N)NC1=O ({CH2CO}-YLRFRPKDAGGC-NH2; thioether N-12) showed an IC50 of 0.65 µM.
